{
  "source": "a melting point compilation (Tetko et al.; mined from patent text by program, amines drawn as free bases though some values may be those of a salt)",
  "data": [
    {"units": {"melting point": "°C"}, "values": [
      {"smiles": "COc1cc(S(N)(=O)=O)cc(C(=O)NC2CCN(CC3CCCCC3)C2)c1OC", "note": "(configuration not stated)", "melting point": 167},
      {"smiles": "CC1(C)CC(=O)c2cc(C#N)c(N3CCN(c4ccccc4)CC3)nc2C1", "melting point": "167 to 170"},
      {"smiles": "CCCCCCCCCCCCC1=C(O)C(=O)c2ccccc2C1=O", "melting point": "85 to 87"},
      {"smiles": "O=C(O)/C=C/c1ccc(OCCC2OCCO2)cc1Oc1ncc(C(F)(F)F)cc1Cl", "melting point": "157 to 158"},
      {"smiles": "CSc1[nH]cc(CCc2ccccc2)c1[N+](=O)[O-]", "melting point": "198 to 200"},
      {"smiles": "COc1ccc(CC(O)c2cc(OC)cc(OC)c2)cc1", "note": "(configuration not stated)", "melting point": "101 to 102"},
      {"smiles": "O=C(Nc1cc(-c2ccnc3c(C(=O)c4cccs4)cnn23)ccc1F)c1ccncc1", "melting point": "175 to 179"},
      {"smiles": "O=CCCCCCN1C(=O)c2ccccc2C1=O", "melting point": "69 to 71"},
      {"smiles": "COc1ccc(CCS(=O)(=O)CC2CCC2)cc1", "melting point": 52},
      {"smiles": "CCOCC(=NO)C(C)(C)NOC(CNC(C)(C)C(C)=NO)Cn1ccnc1[N+](=O)[O-]", "note": "(configuration not stated)", "melting point": "129 to 130"},
      {"smiles": "Cc1cc(=O)n(-c2ccc(Cl)cc2F)c(=O)n1C", "melting point": 145},
      {"smiles": "CO[Si](OC)(OC)O[Si](OC)(OC)O[Si](OC)(OC)OC", "melting point": "< -70"},
      {"smiles": "O=C(Nc1ccc(N2CCS(=O)(=O)CC2)c(C(F)(F)F)c1)c1cccc2cc(Oc3cc(NC(=O)C4CC4)ncn3)ccc12", "melting point": "195 to 205"},
      {"smiles": "CN1C(=O)C(c2ccc(Cl)cc2)SC1c1cccnc1", "note": "(configuration not stated)", "melting point": "77.5 to 79"},
      {"smiles": "CN(C)CCN(C)C(=O)Cc1ccc(NC(=O)c2ccc(-c3ccccc3)cc2)cc1", "melting point": "135 to 136"},
      {"smiles": "CCOC(=O)C(c1ccncc1)C(c1ccccc1)c1ccc(OC)c(OC2CCCC2)c1", "note": "(configuration not stated)", "melting point": "165 to 166"},
      {"smiles": "CCCc1c(OCCCOc2ccc(Br)cc2)ccc2c1OC(CCC(=O)O)(CCC(=O)O)CC2=O", "melting point": 136},
      {"smiles": "CCCC1=C(C#N)C(c2ccccc2Br)c2c[nH]nc2N1", "note": "(configuration not stated)", "melting point": 237},
      {"smiles": "CC(=O)Oc1c(Cl)c(C)nc(C)c1-c1ccc(Oc2ccc(OC(F)(F)F)cc2)cc1", "melting point": "78 to 80"},
      {"smiles": "COc1cc(N)c2nccc(C)c2c1OC", "melting point": "108 to 110"},
      {"smiles": "CC(C)(C)C(=NO)C(C)(C)CCCCCCC(C)(C)C(=NO)C(C)(C)C", "melting point": "203 to 209"},
      {"smiles": "CCCCCCC#Cc1ccc(/C=C(/C(=O)O)C(=O)OCC)o1", "melting point": "89 to 90"},
      {"smiles": "Nc1c(F)c(N2CCC(C(N)c3ccccn3)C2)c(F)c2c1c(=O)c(C(=O)O)cn2C1CC1F", "note": "(configuration not stated)", "melting point": "178 to 180"},
      {"smiles": "O=C(O)C1=CCN(c2ncccc2F)CC1", "melting point": "119 to 120"},
      {"smiles": "O=C(c1ncccc1OC1SCC(O)C(O)C1O)N1CCCCC1", "note": "(configuration not stated)", "melting point": "81 to 92"},
      {"smiles": "N#Cc1cc(-c2nc3cncnc3s2)ccc1Oc1ccc(O)cc1", "melting point": "> 250"},
      {"smiles": "O=C(Nc1ccc2c(c1)nc1n2CCC1)c1cc2cc(C(F)(F)F)cnc2n1Cc1ccccc1", "melting point": "268 to 270"},
      {"smiles": "OCCNC(c1ccccc1)(c1ccccc1)c1ccccc1", "melting point": "94 to 97"},
      {"smiles": "CCOC(=O)c1nc(N)nc(N)c1-c1ccc(Cl)cc1Cl", "melting point": 178},
      {"smiles": "CSc1cc2n(c(=O)n1)C(c1ccccc1)N=C2", "note": "(configuration not stated)", "melting point": "198 to 199"},
      {"smiles": "COC(=O)c1cc(Br)cc(Cl)c1NC(C)=O", "melting point": "152 to 153"},
      {"smiles": "COc1cc(OC)c(C2=CCN(C)CC2)c(OC)c1", "melting point": "112 to 114"},
      {"smiles": "Nc1ccc(Cn2cnnn2)cc1", "melting point": "138 to 140"},
      {"smiles": "CC(C)(Cc1ccccc1)C(NC(=O)c1ccc(Cl)cc1)Nc1c(Nc2cccnc2)c(=O)c1=O", "note": "(configuration not stated)", "melting point": "223 to 224"},
      {"smiles": "OCc1nn(-c2ccccc2)c2c1CCC2", "melting point": "94 to 95"},
      {"smiles": "c1ccc2c(c1)[nH]c1cccc(OCC3CO3)c12", "note": "(configuration not stated)", "melting point": 133},
      {"smiles": "CC(=O)Nc1nc(-c2ccc(O)cc2O)cs1", "melting point": 264},
      {"smiles": "O=C(N=NC=C(Cl)Cl)c1ccccc1", "melting point": "50 to 51"},
      {"smiles": "CC(C)Cn1c(=O)n(C)c(=O)c2c(C#CCCO)n(Cc3cccc4ccccc34)cc21", "melting point": "170 to 171"},
      {"smiles": "CCOC(=O)c1cnc2nn(C)cc2c1NC", "melting point": "178 to 180"},
      {"smiles": "COc1cc2c(cc1Nc1ncc(Cl)c(Nc3ccccc3S(=O)(=O)N(C)C)n1)CCN(C(=O)C(C)(C)N)CC2", "melting point": "93 to 101"},
      {"smiles": "CN(C)CCNC(=O)C(Sc1nc2cc(Cl)ccc2s1)c1ccccc1", "note": "(configuration not stated)", "melting point": "108 to 109"},
      {"smiles": "O=C(Nc1ccc(C(=O)N2C[C@H]3C[C@H](F)CN3c3ccccc32)cc1)c1ccccc1-c1ccccc1", "melting point": "136 to 145"},
      {"smiles": "CCn1c(CNc2ccncc2)nc2c(C#N)nc(-c3cccc(C(F)(F)F)c3)cc21", "melting point": 340},
      {"smiles": "COc1ccccc1-n1c(=O)[nH]c2c(C(N)=O)nc(-c3cccc4[nH]ccc34)nc21", "melting point": "312 to 313"},
      {"smiles": "Nc1cc(O)c(C(=O)O)cc1Cl", "melting point": 192},
      {"smiles": "CC(C)NCC(O)COc1cccc(-c2oc3ccccc3c2C(=O)c2ccc(Cl)cc2)c1", "note": "(configuration not stated)", "melting point": "53 to 60"},
      {"smiles": "C=CCN1C(=O)C2CC2(c2ccc(NC(C)=O)cc2)C1=O", "note": "(configuration not stated)", "melting point": "113 to 116"},
      {"smiles": "CCC(=O)N(c1ccncc1)c1c[nH]c2ccccc12", "melting point": "166 to 168"},
      {"smiles": "CC(=O)OC1CC(C)(C)N(OC(=NC2CCCCC2)N(C(C)=O)C2CCCCC2)C(C)(C)C1", "melting point": "125 to 130"},
      {"smiles": "CCOc1ccc(-c2[nH]nc3c2C(=O)c2c(NC(C)=O)cccc2-3)cc1", "melting point": 288},
      {"smiles": "CCOC(=O)c1ccc(OCCOc2ccc(-c3onc(SC)c3C#N)cc2)cc1", "melting point": "162 to 164"}
    ]}
  ]
}
